Laboratory results as given in US9642831B2, “Substituted chromanes and method of use” (AbbVie S.á.r.l., priority 2014, dated 2017).

Tests used:
CYP3A4 = CYP3A4 induction in primary human hepatocytes (mRNA, RT-PCR); conditions: test compounds 10 μM, 48 hours, % of response of positive control (Rifampin 10 μM)
Experimental: Cryopreserved primary human hepatocytes were thawed and cultured overnight prior to treatment. […] Following the 48 hour treatment, hepatocytes were harvested for RNA isolation and reverse transcription, followed by CYP3A4 mRNA quantitation using RT-PCR (real time reverse transcript polymerase chain reaction).
Fold Induction=Fold of Treated/Fold of Vehicle Control % positive control=(Fold Induction of Treated−1)/(Fold Induction of Prototypical Inducer−1)

F508delCFTR [1] = target: T1, F508delCFTR (Homo sapiens, UniProt P13569, DEL508-508); assay: Cell Surface Expression-Horse Radish Peroxidase (CSE-HRP) assay; assay type: cell-based; parameters: expressed in transfected cells; host or cells: CFBE41o- human lung derived epithelial cell line, doxycycline-inducible; conditions: CFBE4lo-F508delCFTR-HRP cells
T1 sequence (P13569 with tags, fused parts or gaps DEL508-508): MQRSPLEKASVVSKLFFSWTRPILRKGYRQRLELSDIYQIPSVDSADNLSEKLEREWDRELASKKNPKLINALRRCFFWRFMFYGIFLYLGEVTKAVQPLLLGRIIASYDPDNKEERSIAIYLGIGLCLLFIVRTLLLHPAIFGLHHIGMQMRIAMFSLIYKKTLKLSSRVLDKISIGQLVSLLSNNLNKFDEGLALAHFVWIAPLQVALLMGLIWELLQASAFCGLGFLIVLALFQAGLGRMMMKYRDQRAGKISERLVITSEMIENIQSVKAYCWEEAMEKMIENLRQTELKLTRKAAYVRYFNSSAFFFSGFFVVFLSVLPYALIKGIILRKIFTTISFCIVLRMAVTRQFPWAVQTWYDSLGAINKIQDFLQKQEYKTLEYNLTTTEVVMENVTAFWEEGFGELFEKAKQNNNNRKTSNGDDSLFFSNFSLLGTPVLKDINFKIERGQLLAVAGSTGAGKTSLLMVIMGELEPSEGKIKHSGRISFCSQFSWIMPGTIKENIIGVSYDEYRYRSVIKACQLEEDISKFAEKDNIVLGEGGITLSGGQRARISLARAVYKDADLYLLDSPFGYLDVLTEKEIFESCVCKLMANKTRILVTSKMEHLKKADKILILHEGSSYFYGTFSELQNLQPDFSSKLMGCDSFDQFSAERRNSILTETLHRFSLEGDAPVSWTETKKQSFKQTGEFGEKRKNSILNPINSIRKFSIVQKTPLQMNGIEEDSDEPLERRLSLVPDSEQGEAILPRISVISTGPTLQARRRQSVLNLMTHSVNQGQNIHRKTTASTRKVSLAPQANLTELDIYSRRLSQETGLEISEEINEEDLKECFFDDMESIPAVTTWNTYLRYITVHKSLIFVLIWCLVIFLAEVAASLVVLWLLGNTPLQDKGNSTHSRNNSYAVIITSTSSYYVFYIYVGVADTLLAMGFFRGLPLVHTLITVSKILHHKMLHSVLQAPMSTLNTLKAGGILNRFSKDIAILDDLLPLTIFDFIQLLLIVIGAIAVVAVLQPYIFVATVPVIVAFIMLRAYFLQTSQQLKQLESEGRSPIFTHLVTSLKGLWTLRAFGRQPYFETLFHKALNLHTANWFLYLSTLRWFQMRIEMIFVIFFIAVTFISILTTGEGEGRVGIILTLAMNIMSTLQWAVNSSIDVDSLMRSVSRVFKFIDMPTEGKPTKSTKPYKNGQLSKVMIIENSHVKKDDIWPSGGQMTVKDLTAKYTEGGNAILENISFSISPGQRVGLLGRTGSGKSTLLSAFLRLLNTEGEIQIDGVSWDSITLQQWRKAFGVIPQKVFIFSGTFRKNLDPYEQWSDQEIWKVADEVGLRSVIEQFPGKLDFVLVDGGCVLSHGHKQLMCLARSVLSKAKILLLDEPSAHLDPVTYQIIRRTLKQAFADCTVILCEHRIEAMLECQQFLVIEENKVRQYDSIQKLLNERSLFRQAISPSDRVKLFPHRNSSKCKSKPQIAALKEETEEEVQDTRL
Outline: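 Following 18-24 h compound exposure at 33° C. Expression was doxycycline-induced beforehand. % activity versus DMSO and a 3 μM corrector control gave maximum activity and EC50 from a variable-Hill sigmoidal fit.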

F508delCFTR [2] = target: T1, F508delCFTR; assay: Transepithelial Clamp Circuit (TECC-24) conductance assay on primary human bronchial epithelial cells (hBE-TECC); assay type: cell-based; parameters: cells isolated from CF patients with the homozygous mutation; endogenous in cells; host or cells: primary human bronchial epithelial (hBE) cells from F508del/F508del CF patients
Text: Transepithelial Clamp Circuit on Human Bronchial Epithelial Cells Conductance Assay:
A cell based assay using the primary human bronchial epithelial cells (hBE) was used as a secondary assay to test novel F508delCFTR correctors for their activity on primary hBE cells with F508del/F508del CFTR mutation. The assay used a TECC-24 (Transepithelial Clamp Circuit for 24 wells) instrument that measures the functionality of the mutated channel by measuring the equivalent short circuit current (Ieq) generated by the polarized epithelial cells. The instrument works by measuring the transepithelial potential difference (Vt) and transepithelial resistance (Rt) in an open circuit format, and the Ieq is calculated by using Ohms law (Ieq=Vt/Rt). The assay was run in a 24-well format and all 24-wells were measured at the same time point giving a higher throughput for this assay.
Primary human bronchial epithelial (hBE) cells from F508del/F508delCFTR patients were expanded from 1×10^6 to 250×10^6 cells (Neuberger T, Burton B, Clark H and VanGoor F; Cystic Fibrosis, Methods in Mole Biol 741; eds. Amaral M D and Kunzelmann K, 2011). For this purpose, cells isolated from CF patients with the homozygous mutation were seeded onto 24 well Corning (Cat #3378) filter plates that were coated with 3T3 conditioned media and grown at an air-liquid interface for 35 days using an Ultroser® G supplemented differentiation media. Apical surface mucus was removed 72 hours before the experiment using 3 mM dithiothreitol (DTT) in phosphate buffered saline (PBS). The apical surface was washed again 24 hours before the experiment using PBS. The cells were incubated with the desired dose response of the corrector compounds 18-24 hours at 37° C., 5% CO2. The corrector compounds are only added on the basolateral side of the epithelial cells.
On the day of measuring the corrector activity on the TECC, the cells were switched into a bicarbonate and serum free F-12 Coon's medium and allowed to equilibrate for 90 minutes in a CO2 free incubator. At the time of measurement, the apical and basolateral sides of the filter were bathed with the F-12 Coon's modification media (with 20 mM 4-(2-hydroxyethyl)-1-piperazineethanesulfonic acid (HEPES), pH 7.4 (using 1 M tris(hydroxymethyl)aminormethane (Tris)), and the measurements were made at 36.5° C. Transepithelial voltage (Vt) and transepithelial resistance (Rt) were measured using a 24 channel transepithelial current clamp (TECC-24). Current responses to the sequential addition of benzamil (apical 6 μM addition; for inhibiting epithelial ENaC channel), forskolin (apical and basolateral 10 μM addition; for activating the CFTR channel), control potentiator (N-(3-carbamoyl-5,5,7,7-tetramethyl-4,7-dihydro-5H-thieno[2,3-c]pyran-2-yl)-1H-pyrazole-5-carboxamide; apical and basolateral 1 μM addition; for potentiating the CFTR channel) and bumetanide (basolateral 20 μM addition; for inhibiting the Na:2Cl:K co-transporter, an indirect measure of inhibiting the Cl-secretion driven by CFTR channel) were measured.
All plates contained negative controls (dimethyl sulfoxide, DMSO) which coupled with the control potentiator (N-(3-carbamoyl-5,5,7,7-tetramethyl-4,7-dihydro-5H-thieno[2,3-c]pyran-2-yl)-1H-pyrazole-5-carboxamide) sets the null response and positive controls (3 μM of 3-[(2R,4R)-4-({[1-(2,2-difluoro-1,3-benzodioxol-5-yl)cyclopropyl]carbonyl}amino)-7-methoxy-3,4-dihydro-2H-chromen-2-yl]benzoic acid) coupled with the control potentiator sets the 100% response to measure the correction of the mutated CFTR channel. The maximum percent activity is reported relative to the positive control value.
The % activity measured at each of the 6 test concentrations of the test compound was normalized to the on-plate positive control using the following formula: % activity=[(test compound response−DMSO response)/(positive control response−DMSO response)]*100 […]

CYP3A4 Hepatocytes mRNA % of positive control (CYP3A4): 9.41%
EC50 (F508delCFTR [1]; 18-24 hours at 33° C., 8-point curve, highest concentration 20 μM, luminescence readout): 3.24 µM
Emax (F508delCFTR [1]; maximum % activity at any tested concentration, normalized to on-plate positive control (3 μM Example 1)): 98%
EC50 (F508delCFTR [2]; primary hBE cells from F508del/F508delCFTR patients, corrector 18-24 hours at 37° C., equivalent short circuit current (Ieq), with control potentiator 1 μM): 3.4 µM
Emax (F508delCFTR [2]; relative to positive control (3 μM Example 1 coupled with control potentiator = 100%), primary hBE F508del/F508del cells, read-out: Maximum % activity (%)): 51%
SMILES: COc1ccc2c(n1)O[C@@H](c1cccc(C(=O)O)c1)C[C@H]2NC(=O)C1(c2ccc3c(c2)OC(F)(F)O3)CC1 (racemic) [Example 28, rac-3-[(2R,4R)-4-({[1-(2,2-difluoro-1,3-benzodioxol-5-yl)cyclopropyl]carbonyl}amino)-7-methoxy-3,4-dihydro-2H-pyrano[2,3-b]pyridin-2-yl]benzoic acid]
